Tests used:
[1] = system: WSU-DLCL2 human xenograft tumor model; test: Study 3: WSU-DLCL2 human xenograft tumor model; assay type: in vivo, CB17 SCID mice; conditions: for GRI % / Tumor volume on Day 21 (±SEM): WSU-DLCL2; for GRI %: Day 21, vs vehicle; for Tumor volume on Day 21 (±SEM): in mm³ (unit assumed); for tumor growth inhibition as single agents (in words): WSU-DLCL2 human DLBCL mouse model
Protocol: The differences in the tumor growth trends over time between pairs of treatment groups were assessed by fitting each animal's data to a simple exponential growth model and comparing the mean growth rates of the two groups, as described in more detail below. The difference in the growth rates was summarized by the GRI, which is the reduction in growth rate experienced by the treatment group relative to that of the reference group, expressed as a fraction of the vehicle growth rate.
A GRI greater than 100% is interpreted as tumor regression when the vehicle group is the same as the reference group. A negative value of the GRI means that the tumors in the treatment group grew faster than the tumors in the reference group. Statistical significance was determined using an unpaired t-test.
Low tumor volumes can cause problems with the data analysis, so all measurements below 25 cubic mm (including 0 values) were excluded from the analysis. After this exclusion step, the tumor volume was assumed to follow an exponential growth model. […]
WSU-DLCL2 is a human DLBCL cell line. A WSU-DLCL2 human xenograft tumor model was generated by subcutaneous inoculation in the flank of 8 week old female CB17 SCID mice (Charles River Laboratories, Wilmington, MA) with 4.0×10^6 WSU-DLCL2 cells (cell suspension in 0.1 mL RPMI 1640 media). When the mean tumor volume reached approximately 200 mm^3, the animals were randomized into one vehicle control group and seven treatment groups (n=7/group) as described in Table 3a. Mice were then dosed with 20% HPβCD or Compound I-263a and/or tafasitamab over a 3 week period. In the combination treatment groups, I-263a was administered first, followed immediately by the administration of tafasitamab. Tumor growth and body weight were measured twice per week during the treatment and post-treatment periods, and mice were humanely euthanized once they had reached their humane endpoint. Tumors were measured using Vernier calipers and volumes were calculated using standard equation: V=W^2×L/2, where V=volume, W=width, and L=length for the tumor.
A 0.8625 mg/mL stock solution of I-263a was formulated weekly in 20% HPβCD and administered intravenously (IV) based on an average body weight using a 0.2 mL dosing volume. Final dose of I-263a received was 7.5 mg/kg. I-263a was administered on a BIW schedule for 3 weeks (Days 1, 4, 8, 11, 15, 18). Tafasitamab was formulated prior to each injection in 0.9% saline at 0.6 mg/mL and 2.0 mg/mL. Final dose of tafasitamab received was 3, 10, or 20 mg/kg based on average body weight. Tafasitamab was administered intraperitoneally (IP) on a BIW schedule for 3 weeks (Days 1, 4, 8, 11, 15, 18). For the 3 mg/kg dose level, 0.1 mL of the 0.6 mg/mL solution was administered. For the 10 mg/kg and 20 mg/kg dose levels, dosing volumes of the 2.0 mg/mL solution were 0.1 mL and 0.2 mL, respectively. The vehicle group received IV treatment with the vehicle for I-263a (20% HPβCD) on a BIW schedule for three weeks (Days 1, 4, 8, 11, 15, 18).
Statistical analysis for growth rate inhibition was performed on data up to and including Day 21.

[2] = system: NK cells co-cultured with DAUDI cells; test: Degranulation of NK cells (CD107a); assay type: cell-based, human; conditions: PBMCs pre-treated 1 μM TAK-981 24 h and/or 0.1 or 10 nM tafasitamab; E:T 10:1; 3 h; vs DMSO control or mono treatments; FIG. 2
Protocol: Whole Blood was collected from healthy volunteers. PBMCs were isolated via density-gradient centrifugation using Biocoll (Biochrome) or Pancoll (PAN Biotech) separating solution and SepMate tubes (STEMCELL Technologies).
Freshly isolated PBMCs were first pre-treated with 1 μM TAK-981 or DMSO-containing buffer for 24 hours. PBMCs with or without TAK-981 pre-treatment were co-cultured with DAUDI cells at an E:T ratio of 10:1 and incubated with 0.1 or 10 nM tafasitamab or no antibody at 37° C. and 5% CO2. After 1 hour, 2 μM Monensin was added to each well and CD107a expression was analyzed by flow cytometry after a total incubation time of 3 hours.

Molecule	GRI % ([1]; tafasitamab 3 mg/kg IP BIW) [%]	GRI % ([1]; tafasitamab 10 mg/kg IP BIW) [%]	GRI % ([1]; tafasitamab 10 mg/kg IP BIW, listed as tafasitamab)	GRI % ([1]; tafasitamab 20 mg/kg IP BIW) [%]	GRI % ([1]; tafasitamab 20 mg/kg IP BIW, listed as tafasitamab)	Tumor volume on Day 21 (±SEM) ([1]; tafasitamab 3 mg/kg IP BIW 3 weeks)	Tumor volume on Day 21 (±SEM) ([1]; tafasitamab 10 mg/kg IP BIW 3 weeks)	Tumor volume on Day 21 (±SEM) ([1]; tafasitamab 20 mg/kg IP BIW 3 weeks)	tumor growth inhibition as single agents (in words) [1]	percentage of CD107+ NK cells [2]	GRI % ([1]; I-263a 7.5 mg/kg IV BIW, 7.5 mg/kg) [%]	GRI % ([1]; I-263a 7.5 mg/kg IV BIW, listed as TAK-981)	Tumor volume on Day 21 (±SEM) ([1]; I-263a 7.5 mg/kg IV BIW 3 weeks)
Tafasitamab: humanized monoclonal antibody that targets the antigen CD19, engineered in the IgG Fc-region to enhance ADCC; sequences in Table 1	20	12	did not result in significant growth rate inhibition	2	did not result in significant growth rate inhibition	1197.3 ± 168.3	1494.3 ± 126.3	1519.0 ± 110.8	do not show significant or extensive tumor growth inhibition	elevated percentage of CD107+ NK cells			
Cc1sc(C(=O)c2cncnc2N[C@@H]2C[C@H](COS(N)(=O)=O)[C@@H](O)C2)cc1[C@@H]1NCCc2ccc(Cl)cc21 [Compound I-263a, [(1R,2S,4R)-4-{[5-({4-[(1R)-7-chloro-1,2,3,4-tetrahydroisoquinolin-1-yl]-5-methyl-2-thienyl}carbonyl)pyrimidin-4-yl]amino}-2-hydroxycyclopentyl]methyl sulfamate]									do not show significant or extensive tumor growth inhibition	elevated percentage of CD107+ NK cells	14	did not result in significant growth rate inhibition	1410.7 ± 155.8
